The results in this text go back to patent US9101632B2, “Kinase inhibitors, prodrug forms thereof and their use in therapy” (AUCKLAND UNISERVICES LIMITED, priority 2009, dated 2015).

The structures appear in SMILES notation. Read-outs that look alike come from different tables or passages of the source.

The test system of data set [1] is A431 tumours. The note with it: A431 xenograft, q3dx4, intraperitoneal; for Drug related deaths: lactate buffer pH 4; for TGD (Tumour Growth Delay): % increase in time to RTV4 relative to control; for Weight Loss Nadir (%): mean nadir relative to day 0 weight.
Data set [2] has as its target erbB1 (EGFR) (Homo sapiens, UniProt P00533). Nature of the data set: Inhibition of erbB1 autophosphorylation in EGF-stimulated intact A431 cells (Western immunoblotting). It is filed as cell-based. The note with it: 1 hour treatment, phospho-EGFR (Tyr 1068), β-actin corrected. The procedure: (§1) A431 cells were seeded into 6 well plates (with αMEM+5% FCS). The following day, plates were washed once with serum-free medium and grown for 18 hours in serum-free medium (αMEM) before being exposed to a range of inhibitor or prodrug concentrations for 1 hour and then stimulated for 15 minutes with 100 ng/ml epidermal growth factor (EGF receptor ligand). Next cells were washed with ice cold PBS and lysed in modified RIPA buffer on ice (30 min). Lysates were vortexed and clarify by spinning before protein concentrations of samples was determined by BCA assay. […] All antibodies were diluted in 2% BSA TBS-Tween 0.1%. To detect phospho-EGFR (Tyr 1068) the monoclonal antibody (1:500; Cell Signalling #2234) was incubated overnight at 4° C. and binding was detected with goat-anti-Rabbit-IgG-HRP conjugated secondary antibody (1:5000; Santa Cruz #SC2054; 3 h RT). To detect downstream phospho-p44/42 MAPK(Erk 1/2) (Thr202/Tyr 204) the monoclonal antibody (Cell Signalling #4370) was used at a 1:500 dilution. The blot was then treated with Goat anti-rabbit IgG-HRP conjugated secondary antibody (Santa Cruz Biotechnology, Inc. sc-2054) for three hours at a ratio of 1:5000. To normalise for any inaccuracy in gel loading, each blot was probed with anti-β-actin antibody (Abacus ALS #MAB-1501R, 1:2000 dilution). The following day, the blot was treated with Goat anti-mouse IgG-HRP conjugated secondary antibody (Santa Cruz Biotechnology, Inc. sc-2055) for one hour at a 1:5000 ratio. Protein bands were visualized using Amersham ECL Plus Western Blotting Detection Reagent (GE Healthcare RPN2132). Densitometry was determined using Image J software. Values normalized to β-actin were plotted on SigmaPlot 11.0.
For orientation: Immunoblotting shows a protein as a band on a membrane.

Data set [3] has as its system H1975 cells. Nature of the data set: Inhibition of cellular proliferation (sulforhodamine B staining). The note with it: for H1975 HCR (Hypoxic Cytotoxicity Ratio): fold change in intra-experimental IC50, 4 hours anoxia relative to oxic only. For orientation: Sulforhodamine B stains cellular protein and so reports cell mass.
For data set [4], the system named is SKOV3 cells. The description is as above. The note with it: for SKOV3 HCR (Hypoxic Cytotoxicity Ratio): fold change in intra-experimental IC50, 4 hours anoxia relative to oxic only.
Data set [5] has as its system A431 cells. The description is as above. The note with it: for A431 HCR (Hypoxic Cytotoxicity Ratio): fold change in intra-experimental IC50, 4 hours anoxia relative to oxic only.
In data set [6] the test system is p44/42 MAPK (Erk1/2). As to the kind of experiment: Inhibition of p44/42 MAPK (Erk1/2) phosphorylation in EGF-stimulated intact A431 cells (Western immunoblotting). The note with it: for downstream p44/42 MAPK(Erk 1/2) phosphorylation (Thr202/Tyr 204), result in words: 1 hour treatment. It is filed as cell-based, human. How it is done: as §1
Data set [7] deals with H1975 tumours. As to conditions: H1975 xenograft, q3dx4, intraperitoneal; for Drug related deaths: lactate buffer pH 4; for Weight Loss Nadir (%): mean nadir relative to day 0 weight.
The conditions of data set [8]: pulse radiolysis, determined against methylviologen.
[9] abbreviates: read-out: Cellular Growth Inhibition IC50 H1975 Anoxic, initial 4 hours of the 24 hour exposure under anoxic conditions.
Where [10] appears, read: read-out: Cellular Growth Inhibition IC50 H1975 Oxic, 24 hour exposure entirely under oxic conditions, washed, further 4 days.
Where [11] appears, read: read-out: Cellular Growth Inhibition IC50 SKOV3 Anoxic, initial 4 hours of the 24 hour exposure under anoxic conditions.
The mark [12] stands for this setting: read-out: Cellular Growth Inhibition IC50 SKOV3 Oxic, 24 hour exposure entirely under oxic conditions, washed, further 4 days.
Where [13] appears, read: read-out: Cellular Growth Inhibition IC50 A431 Anoxic, initial 4 hours of the 24 hour exposure under anoxic conditions.
[14] abbreviates: read-out: Cellular Growth Inhibition IC50 A431 Oxic, 24 hour exposure entirely under oxic conditions, washed, further 4 days.

Chain of erbB1 (EGFR) (P00533 25-1210): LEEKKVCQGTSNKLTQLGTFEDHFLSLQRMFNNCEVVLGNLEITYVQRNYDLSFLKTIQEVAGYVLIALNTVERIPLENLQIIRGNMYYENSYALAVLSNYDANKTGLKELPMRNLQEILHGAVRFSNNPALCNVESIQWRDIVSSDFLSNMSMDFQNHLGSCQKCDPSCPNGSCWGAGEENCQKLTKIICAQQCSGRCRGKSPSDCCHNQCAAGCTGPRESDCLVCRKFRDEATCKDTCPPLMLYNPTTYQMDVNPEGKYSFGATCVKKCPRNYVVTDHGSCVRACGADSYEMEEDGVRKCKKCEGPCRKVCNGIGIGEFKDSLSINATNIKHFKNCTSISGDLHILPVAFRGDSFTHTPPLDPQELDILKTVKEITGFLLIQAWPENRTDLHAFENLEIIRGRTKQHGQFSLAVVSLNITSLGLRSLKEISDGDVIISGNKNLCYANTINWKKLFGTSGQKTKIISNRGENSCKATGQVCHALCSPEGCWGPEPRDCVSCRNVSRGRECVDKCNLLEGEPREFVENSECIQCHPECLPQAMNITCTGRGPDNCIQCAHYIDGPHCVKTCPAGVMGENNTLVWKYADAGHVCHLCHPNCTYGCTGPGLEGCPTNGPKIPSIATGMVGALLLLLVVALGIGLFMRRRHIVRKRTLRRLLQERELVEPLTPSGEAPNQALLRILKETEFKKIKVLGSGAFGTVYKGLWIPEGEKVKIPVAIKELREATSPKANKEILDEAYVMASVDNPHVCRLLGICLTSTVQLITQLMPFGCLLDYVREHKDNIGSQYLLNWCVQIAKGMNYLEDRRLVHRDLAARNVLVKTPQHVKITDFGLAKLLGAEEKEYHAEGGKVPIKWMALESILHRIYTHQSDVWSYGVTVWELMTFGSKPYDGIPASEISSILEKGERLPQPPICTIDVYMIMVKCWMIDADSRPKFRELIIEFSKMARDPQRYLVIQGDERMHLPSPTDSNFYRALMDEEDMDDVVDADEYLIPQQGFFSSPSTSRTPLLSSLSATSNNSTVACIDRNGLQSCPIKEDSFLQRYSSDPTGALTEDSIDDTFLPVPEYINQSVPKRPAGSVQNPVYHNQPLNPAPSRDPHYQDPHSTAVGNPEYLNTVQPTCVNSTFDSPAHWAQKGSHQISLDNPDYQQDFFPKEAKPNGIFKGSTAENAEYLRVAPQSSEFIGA

`CN(C)C/C=C/C(=O)Nc1cc2c(Nc3ccc(Br)c(Cl)c3)ncnc2cn1` [Compound 6, (2E)-N-[4-(4-bromo-3-chloroanilino)pyrido[3,4-d]pyrimidin-6-yl]-4-(dimethylamino)-2-butenamide] returned a Drug related deaths in data set [1] of 0. For the same compound, the “TGD (Tumour Growth Delay)” value in data set [1] was above 250%. The “Weight Loss Nadir (%)” value in data set [1] is on record as −1.5 ± 0.8%. For the same compound, the IC50 in data set [2] worked out at 0.025 µM; in data set [3] (setting [9]), 0.22 µM; in data set [3] (setting [10]), 0.15 µM; in data set [4] (setting [11]), 0.55 µM; in data set [4] (setting [12]), 0.2 µM; in data set [5] (setting [13]), 0.005 µM. Besides, the IC50 in data set [5] (setting [14]) was 0.005 µM. Besides, the “H1975 HCR (Hypoxic Cytotoxicity Ratio)” value in data set [3] is on record as 0.7. Moreover, the “SKOV3 HCR (Hypoxic Cytotoxicity Ratio)” value in data set [4] came to 0.7. Also, the “downstream p44/42 MAPK(Erk 1/2) phosphorylation (Thr202/Tyr 204), result in words” value in data set [6] is “coordinate loss”.

For the compound `C#Cc1cc(Nc2ncnc3cnc(NC(=O)/C=C/CN(C)C)cc23)ccc1Cl` [Compound 9, (2E)-N-[4-(4-chloro-3-ethynylanilino)pyrido[3,4-d]pyrimidin-6-yl]-4-(dimethylamino)-2-butenamide], in data set [1], the Drug related deaths came to 0, the “TGD (Tumour Growth Delay)” value was above 250% and the “Weight Loss Nadir (%)” value is −1.7 ± 1.7%. Moreover, the “H1975 HCR (Hypoxic Cytotoxicity Ratio)” value in data set [3] was 0.5. In data set [3] (setting [9]), the IC50 is 0.56 µM. Besides, the IC50 in data set [4] (setting [11]) is 0.96 µM. Further, the IC50 in data set [5] (setting [13]) came to 0.016 µM.

With `CN(C)C/C=C/C(=O)Nc1cc2c(Nc3ccc(Br)c(Br)c3)ncnc2cn1` [Compound 7, (2E)-N-[4-(3,4-dibromoanilino)pyrido[3,4-d]pyrimidin-6-yl]-4-(dimethylamino)-2-butenamide], the “H1975 HCR (Hypoxic Cytotoxicity Ratio)” value in data set [3] is on record as 1.0. In addition, the IC50 in data set [3] (setting [9]) came out at 0.27 µM; in data set [3] (setting [10]), 0.18 µM; in data set [4] (setting [11]), 0.6 µM; in data set [4] (setting [12]), 0.37 µM; in data set [5] (setting [13]), 0.008 µM; in data set [5] (setting [14]), 0.005 µM. This compound registered a Drug related deaths in data set [7] of 1. Further, in data set [7], the “Weight Loss Nadir (%)” value is recorded as −4.9 ± 2.4%. The “A431 HCR (Hypoxic Cytotoxicity Ratio)” value in data set [5] was 0.8.

Consider `C#Cc1cc(Nc2ncnc3cnc(NC(=O)/C=C/CN(C)C)cc23)ccc1F` [Compound 8, (2E)-4-(dimethylamino)-N-[4-(3-ethynyl-4-fluoroanilino)pyrido[3,4-d]pyrimidin-6-yl]-2-butenamide], for which the IC50 in data set [3] (setting [9]) was 1.4 µM; in data set [4] (setting [11]) it was 1.8 µM; in data set [5] (setting [13]), 0.12 µM. In addition, the Drug related deaths in data set [7] was determined as 0. The “Weight Loss Nadir (%)” value in data set [7] was −3.3 ± 3.0%.

As to `CN(C)C/C=C/C(=O)Nc1cc2c(Nc3ccc(Cl)c(Br)c3)ncnc2cn1` [Compound 5, (2E)-N-[4-(3-bromo-4-chloroanilino)pyrido[3,4-d]pyrimidin-6-yl]-4-(dimethylamino)-2-butenamide], the Drug related deaths was 0 in data set [1] and 1 in data set [7]. Besides, in data set [1], the “TGD (Tumour Growth Delay)” value is above 250%. Also, the “Weight Loss Nadir (%)” value in data set [1] is on record as −6.3 ± 4.5%; in data set [7] it was −8.5 ± 0.6%. Also, the IC50 in data set [2] stood at 0.0395 µM; in data set [3] (setting [9]), 0.5 µM; in data set [3] (setting [10]), 0.29 µM; in data set [4] (setting [11]), 0.45 µM; in data set [4] (setting [12]), 0.3 µM; in data set [5] (setting [13]), 0.01 µM. The IC50 in data set [5] (setting [14]) came to 0.009 µM. Also, the “H1975 HCR (Hypoxic Cytotoxicity Ratio)” value in data set [3] was 0.9. In data set [4], the “SKOV3 HCR (Hypoxic Cytotoxicity Ratio)” value is given as 0.9. The “A431 HCR (Hypoxic Cytotoxicity Ratio)” value in data set [5] was found to be 1.0. Moreover, the “downstream p44/42 MAPK(Erk 1/2) phosphorylation (Thr202/Tyr 204), result in words” value in data set [6] is recorded as “coordinate loss”.

In the case of `Cn1cnc([N+](=O)[O-])c1C[N+](C)(C)C/C=C/C(=O)Nc1cc2c(Nc3ccc(Br)c(Cl)c3)ncnc2cn1.[Br-]` [Compound 18, (2E)-4-{[4-(4-bromo-3-chloroanilino)pyrido[3,4-d]pyrimidin-6-yl]amino}-N,N-dimethyl-N-[(1-methyl-4-nitro-1H-imidazol-5-yl)methyl]-4-oxo-2-buten-1-ammonium bromide], the “E(1)/V 1-electron reduction potential” value in data set [8] is given as −0.428 V. Further, the Drug related deaths in data set [1] came to 0. Also, the “TGD (Tumour Growth Delay)” value in data set [1] was above 250%. Moreover, the “Weight Loss Nadir (%)” value in data set [1] is on record as −4.1 ± 0.4%. Besides, the IC50 was found to be 0.2 µM in data set [3] (setting [9]); 13.3 µM in data set [3] (setting [10]); 0.6 µM in data set [4] (setting [11]); 13 µM in data set [4] (setting [12]); 0.012 µM in data set [5] (setting [13]); 0.5 µM in data set [5] (setting [14]). Besides, the “SKOV3 HCR (Hypoxic Cytotoxicity Ratio)” value in data set [4] was 24.

`Cn1cnc([N+](=O)[O-])c1C[N+](C)(C)C/C=C/C(=O)Nc1cc2c(Nc3ccc(Br)c(Br)c3)ncnc2cn1.[Br-]` [Compound 19, (2E)-4-{[4-(3,4-dibromoanilino)pyrido[3,4-d]pyrimidin-6-yl]amino}-N,N-dimethyl-N-[(1-methyl-4-nitro-1H-imidazol-5-yl)methyl]-4-oxo-2-buten-1-ammonium bromide]: the “E(1)/V 1-electron reduction potential” value in data set [8] is given as −0.425 V. Also, the IC50 in data set [3] (setting [9]) turned out to be 0.23 µM; in data set [3] (setting [10]), 15 µM; in data set [4] (setting [11]), 0.42 µM; in data set [4] (setting [12]) it was 29 µM; in data set [5] (setting [13]), 0.025 µM; in data set [5] (setting [14]), 0.42 µM. The same compound displayed a Drug related deaths in data set [7] of 1. The “TGD (Tumour Growth Delay)” value in data set [7] (% increase in time to RTV4 relative to control) was found to be 138%. Also, the “Weight Loss Nadir (%)” value in data set [7] is listed as −2.7 ± 0.6%.

Consider `CN(C)C/C=C/C(=O)Nc1cc2c(Nc3ccc(OCc4cccc(Cl)c4)c(Cl)c3)ncnc2cn1` [Compound 1, (2E)-N-(4-{3-chloro-4-[(3-chlorobenzyl)oxy]anilino}pyrido[3,4-d]pyrimidin-6-yl)-4-(dimethylamino)-2-butenamide], for which the IC50 in data set [3] (setting [9]) is 0.88 µM; in data set [4] (setting [11]), 0.69 µM; in data set [5] (setting [13]), 0.221 µM. This compound also had a Drug related deaths in data set [7] of 0. Further, in data set [7], the “Weight Loss Nadir (%)” value was −3.6 ± 3.0%.

`CN(C)C/C=C/C(=O)Nc1cc2c(Nc3ccc(OCc4ccccn4)c(Cl)c3)ncnc2cn1` [Compound 3, (2E)-N-{4-[3-chloro-4-(2-pyridinylmethoxy)anilino]pyrido[3,4-d]pyrimidin-6-yl}-4-(dimethylamino)-2-butenamide]: the IC50 was determined as 0.0483 µM in data set [2]; 0.73 µM in data set [3] (setting [9]); 1.13 µM in data set [4] (setting [11]); 0.14 µM in data set [5] (setting [13]); 0.179 µM in data set [6] (Homo sapiens, A-431, 1 hour treatment, read-out: IC50 p44/42 MAPK(Erk 1/2) phosphorylation (Thr202/Tyr 204)). Besides, the “H1975 HCR (Hypoxic Cytotoxicity Ratio)” value in data set [3] turned out to be 0.8. Further, the Drug related deaths in data set [7] stood at 0. The “Weight Loss Nadir (%)” value in data set [7] is −4.7 ± 0.4%. In addition, the “downstream p44/42 MAPK(Erk 1/2) phosphorylation (Thr202/Tyr 204), result in words” value in data set [6] is given as “coordinate loss”.

`C#Cc1cc(Nc2ncnc3cnc(NC(=O)/C=C/C[N+](C)(C)Cc4c([N+](=O)[O-])ncn4C)cc23)ccc1Cl` [Compound 21, (2E)-4-{[4-(4-chloro-3-ethynylanilino)pyrido[3,4-d]pyrimidin-6-yl]amino}-N,N-dimethyl-N-[(1-methyl-4-nitro-1H-imidazol-5-yl)methyl]-4-oxo-2-buten-1-ammonium bromide] came in with a Drug related deaths in data set [1] of 0. Further, in data set [1], the “TGD (Tumour Growth Delay)” value is recorded as above 250%. Further, the “Weight Loss Nadir (%)” value in data set [1] was −4.3 ± 2.3%. The “H1975 HCR (Hypoxic Cytotoxicity Ratio)” value in data set [3] is on record as 18. In addition, the IC50 in data set [3] (setting [9]) is 0.6 µM; in data set [3] (setting [10]) it was 18 µM; in data set [4] (setting [11]), 1.13 µM; in data set [4] (setting [12]), 47 µM; in data set [5] (setting [13]), below 0.01 µM; in data set [5] (setting [14]) it was 0.85 µM.
